Assay results as given in ChEMBL document CHEMBL1153246, “Discovery of novel taspine derivatives as antiangiogenic agents” (Bioorg Med Chem Lett, 2010).
Converted amounts (≈) assume the structure as drawn.

Legend:
[1] = Ratio of solubility for drug to taspine; format: physicochemical
A549 = test: Antiproliferative activity against human A549 cells; format: functional, cell-based
Caco-2 [2] = test: Antiproliferative activity against human Caco-2 cells; format: functional, cell-based
Polar surface area = conditions: pH 7.4
[3] = Dissociation constant, pKa; conditions: pH 7.4
[4] = Solubility of the compound
ECV-304 [5] = test: Antiproliferative activity against human ECV304 cells; format: functional, cell-based
Caco-2 [6] = test: Ratio of IC50 drug to IC50 taspine against human Caco-2 cells; format: functional
ECV-304 [7] = test: Ratio of IC50 drug to IC50 taspine against human ECV304 cells; format: functional

With `COC(=O)c1cc(OC(=O)c2ccc(OC)c(O)c2)c(OC)cc1CCN(C)C` the Ratio [1] was 13, the IC50 (A549) was 453 nM and the IC50 (Caco-2 [2]) was 11000 nM. For the same molecule, the PSA (Polar surface area) was 94.5 Å2, the pKa [3] was 8.75 and the solubility [4] was 140 µg/mL (≈ 347 µM).

`COC(=O)c1cc(OC(=O)c2ccc(OC)c(O)c2)c(OC)cc1CCNc1ccc(F)c(Cl)c1` gave an IC50 (A549) of 180 nM, an IC50 (ECV-304 [5]) of 61 nM and a PSA (Polar surface area) of 103 Å2. For the same molecule, the pKa [3] was 3.65 and the solubility [4] was 61 µg/mL (≈ 121 µM).

For `COC(=O)c1ccc(OC)c(OC(=O)c2cc(O)c(OC)cc2CCN(C)C)c1`, the IC50 (A549) was 111 nM, the IC50 (Caco-2 [2]) was 3100 nM and the PSA (Polar surface area) was 94.5 Å2. For the same molecule, the pKa [3] was 8.57 and the solubility [4] was 130 µg/mL (≈ 322 µM).

Molecule `COC(=O)c1cc(OC(=O)c2ccc(OC)c(O)c2)c(OC)cc1CCN1CCOCC1` has a Ratio [1] of 13, an IC50 (A549) of 158 nM and an IC50 (Caco-2 [2]) of 52.5 nM. The IC50 (ECV-304 [5]) was 2.67 nM, the “Ratio IC50” value (Caco-2 [6]) was 3 and the “Ratio IC50” value (ECV-304 [7]) was 10. It also gave a PSA (Polar surface area) of 104 Å2, a pKa [3] of 7.28 and a solubility [4] of 270 µg/mL (≈ 606 µM).

For `COc1ccc2c(=O)oc3c(OC)cc(CCN(C)C)c4c(=O)oc1c2c34` [TASPINE], the IC50 (A549) was 4.18 nM, the IC50 (Caco-2 [2]) was 153 nM and the IC50 (ECV-304 [5]) was 22.3 nM. It also gave a PSA (Polar surface area) of 74.3 Å2, a pKa [3] of 8.21 and a solubility [4] of 21 µg/mL (≈ 56.9 µM).
